From patent publication US7704995B2 (Exelixis, Inc., priority 2003, dated 2010)
Read-outs that look alike come from different tables or passages of the source.

Molecular target: T1, Chk1 (Homo sapiens, UniProt O14757)
T1 construct: purchased Upstate Biotechnology
T1 sequence (O14757 1-476): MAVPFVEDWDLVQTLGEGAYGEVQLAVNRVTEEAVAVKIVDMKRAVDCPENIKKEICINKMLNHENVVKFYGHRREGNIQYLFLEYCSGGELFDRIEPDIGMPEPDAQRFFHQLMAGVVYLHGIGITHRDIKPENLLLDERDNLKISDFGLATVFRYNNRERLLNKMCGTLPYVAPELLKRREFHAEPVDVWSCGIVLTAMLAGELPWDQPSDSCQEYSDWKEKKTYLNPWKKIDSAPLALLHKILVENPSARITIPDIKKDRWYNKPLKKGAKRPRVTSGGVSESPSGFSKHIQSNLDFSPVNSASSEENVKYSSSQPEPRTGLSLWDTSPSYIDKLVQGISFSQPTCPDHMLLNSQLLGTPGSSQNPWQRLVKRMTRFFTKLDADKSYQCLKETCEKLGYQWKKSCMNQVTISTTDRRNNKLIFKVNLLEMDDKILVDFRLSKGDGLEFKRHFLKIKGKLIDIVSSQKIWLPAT
Experiment: Chk1 kinase assay: incorporation of γ-33P ATP into immobilized myelin basic protein
Type: biochemical
Details: read-out: Chk1 IC50
In short: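 Chk1 (10 nM) or Chk2 (20 nM) phosphorylated plate-immobilized myelin basic protein for 1 h at room temperature in Hepes pH 7.6 buffer with MgCl2, DTT, 1% DMSO, γ-33P ATP plus 10 μM (Chk1) or 30 μM (Chk2) unlabeled ATP. Bound radioactivity counted by scintillation; IC50 determined, Ki derivable from IC50.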

[1] = Table 11, Chk1 only, class symbols A-D

IC50 (Table 11, Chk1 only) | SMILES | also measured
50 to 1000 nM | NCCCNC(=O)c1nc(-c2cccc(C(=O)NCc3ccccc3)c2)cnc1N [Example 613, 3-amino-N-(3-aminopropyl)-6-(3-{[(phenylmethyl)amino]carbonyl}phenyl)pyrazine-2-carboxamide] | –
– | NC(=O)c1nc(-c2ccccc2)cnc1NCc1ccccc1 [Example 39, 6-phenyl-3-[(phenylmethyl)amino]pyrazine-2-carboxamide] | IC50: ≥ 10000 nM
– | CNC(=O)c1nc(-c2cccc(C(=O)N(Cc3ccccc3)Cc3ccccc3)c2)cnc1N [Example 114, 3-amino-6-(3-{[bis(phenylmethyl)amino]carbonyl}phenyl)-N-methylpyrazine-2-carboxamide] | IC50: 1000 to 10000 nM
≥ 10000 nM | C[C@@H](NC(=O)c1cccc(-c2cnc(N)c(C(=O)N[C@H]3CCN(C(=O)OC(C)(C)C)C3)n2)c1)c1ccccc1 [Example 710, 1,1-dimethylethyl (3S)-3-[({3-amino-6-[3-({[(1R)-1-phenylethyl]amino}carbonyl)phenyl]pyrazin-2-yl}carbonyl)amino]pyrrolidine-1-carboxylate] | –
≥ 10000 nM | COC(=O)[C@@H]1CCCN1C(=O)c1nc(-c2cccc(C(=O)NCc3ccccc3)c2)cnc1N [Example 590, methyl 1-{[3-amino-6-(3-{[(phenylmethyl)amino]carbonyl}phenyl)pyrazin-2-yl]carbonyl}-L-prolinate] | –
– | CNC(=O)c1nc(-c2cccc(CNCc3ccc(-c4cccs4)cc3)c2)cnc1N [Example 422, 3-amino-N-methyl-6-{3-[({[4-(2-thienyl)phenyl]methyl}amino)methyl]phenyl}pyrazine-2-carboxamide] | IC50: < 50 nM
– | Nc1ncc(-c2cccc(C(=O)NCc3ccc4c(c3)OCO4)c2)nc1C(=O)N[C@H]1CCCNC1 [Example 853, 3-amino-6-(3-{[(1,3-benzodioxol-5-ylmethyl)amino]carbonyl}phenyl)-N-[(3S)-piperidin-3-yl]pyrazine-2-carboxamide] | IC50 [1]: < 50 nM
– | Nc1ncc(-c2cccc(C(=O)NCc3c(F)cccc3Cl)c2)nc1C(=O)N[C@H]1CCCNC1 [Example 995, 3-amino-6-[3-({[(2-chloro-6-fluorophenyl)methyl]amino}carbonyl)phenyl]-N-[(3S)-piperidin-3-yl]pyrazine-2-carboxamide] | IC50 [1]: < 50 nM
– | Nc1ncc(-c2cccc(C(=O)N[C@H]3c4ccccc4C[C@@H]3O)c2)nc1C(=O)N[C@H]1CCCCNC1 [Example 970, 3-amino-N-[(3S)-azepan-3-yl]-6-[3({[(1S,2S)-2-hydroxy-2,3-dihydro-1H-inden-1-yl]amino}carbonyl)phenyl]pyrazine-2-carboxamide] | IC50 [1]: < 50 nM
50 to 1000 nM | CNC(=O)c1nc(-c2cccc(CNC3CCc4cc(F)ccc43)c2)cnc1N (centres unmarked) [Example 464, 3-amino-6-(3-{[(5-fluoro-2,3-dihydro-1H-inden-1-yl)amino]methyl}phenyl)-N-methylpyrazine-2-carboxamide] | –
50 to 1000 nM | CNC(=O)c1nc(-c2cccc(CNCc3ccc(-c4ccccc4)cc3F)c2)cnc1N [Example 449, 3-amino-6-[3-({[(3-fluorobiphenyl-4-yl)methyl]amino}methyl)phenyl]-N-methylpyrazine-2-carboxamide] | –
1000 to 10000 nM | Nc1ncc(-c2cccc(CN[C@H]3CCc4ccccc43)c2)nc1C(=O)NCCN1CCCCC1 [Example 541, 3-amino-6-(3-{[(1S)-2,3-dihydro-1H-inden-1-ylamino]methyl}phenyl)-N-(2-piperidin-1-ylethyl)pyrazine-2-carboxamide] | –
50 to 1000 nM | Nc1ncc(-c2cccc(C(=O)N[C@H]3CCc4ccccc43)c2)nc1-c1nc(C2CCCNC2)n(-c2ccccc2)n1 (stereo partly drawn) [Example 773, 3-[5-amino-6-(1-phenyl-5-piperidin-3-yl-1H-1,2,4-triazol-3-yl)pyrazin-2-yl]-N-[(1S)-2,3-dihydro-1H-inden-1-yl]benzamide] | –
– | NCc1cccc(-c2cnc(N)c(C(=O)N[C@H]3CCCNC3)n2)c1 [Example 839, 3-amino-6-[3-(aminomethyl)phenyl]-N-[(3S)-piperidin-3-yl]pyrazine-2-carboxamide] | IC50 [1]: < 50 nM
